Laboratory results reported in the pKa sets of Baltruschat and Czodrowski (2020).

Conditions: acidic group

**Q.** With `Cc1ccc(C(=S)Nc2ccc(Cl)cc2)cc1` as the molecule, how does the pKa read?
**A.** The pKa was 10.8.

**Q.** Which pKa does the source give for `CNCC(N)=O` here?
**A.** Its pKa is 8.35.

**Q.** For `OB1OCc2ccccc21`, which pKa is on record?
**A.** Its pKa is 7.38.

**Q.** For `O=C(O)[C@H](O)c1ccccc1[N+](=O)[O-]`, which pKa is on record?
**A.** The pKa was 3.15.

**Q.** Which pKa does the source give for `CC(C)(C)C#CC(=O)O` here?
**A.** Its pKa is 2.66.

**Q.** With `CC(C)P(=O)(O)C(C)C` as the molecule, how does the pKa read?
**A.** The pKa was 3.56.

**Q.** For `CC(=O)NS(=O)(=O)c1ccccc1C(=O)O`, which pKa is on record?
**A.** The pKa was 3.1.

**Q.** With `COc1ccc(CCC(=O)O)cc1` as the molecule, how does the pKa read?
**A.** Its pKa is 4.72.

**Q.** With `[O-]B(O)c1cccc(O)c1` as the molecule, how does the pKa read?
**A.** Its pKa is 10.8.

**Q.** For `Cn1c(=S)[nH]c2cncnc21`, which pKa is on record?
**A.** The pKa was 7.48.

**Q.** With `CCCSCC(=O)O` as the molecule, how does the pKa read?
**A.** Its pKa is 3.77.

**Q.** With `Nc1nnn[nH]1` as the molecule, how does the pKa read?
**A.** The pKa was 5.98.

**Q.** For `CCC(=O)NOC(=O)/C=C/c1ccccc1`, which pKa is on record?
**A.** Its pKa is 6.8.

**Q.** Which pKa does the source give for `O=C(O)CSc1[nH]c2cc3ccccc3cc2[nH+]1` here?
**A.** The pKa was 1.9.

**Q.** With `O=c1cc[nH]cc1` as the molecule, how does the pKa read?
**A.** The pKa was 11.1.

**Q.** For `O=C(O)CCc1c[nH]c[nH+]1`, which pKa is on record?
**A.** The pKa was 4.

**Q.** With `CCCC(=O)OO` as the molecule, how does the pKa read?
**A.** Its pKa is 8.2.

**Q.** For `[NH3+]C(Cc1ccccc1)c1nnn[nH]1` (centres undefined), which pKa is on record?
**A.** Its pKa is 1.93.

**Q.** Which pKa does the source give for `[NH3+]CCCC(=O)O` here?
**A.** The pKa was 4.06.

**Q.** Which pKa does the source give for `CCOC(=O)c1ccccc1-n1nc(O)cc1C` here?
**A.** The pKa was 12.3.

**Q.** For `CCOC(=O)C1(CCC(=O)O)CCC(=O)NC1=O` (centres undefined), which pKa is on record?
**A.** Its pKa is 4.35.

**Q.** Which pKa does the source give for `Cc1nc(C(=O)[O-])ccc1O` here?
**A.** The pKa was 9.49.

**Q.** For `CC(C)=CC(=O)/C=N/O`, which pKa is on record?
**A.** Its pKa is 8.9.

**Q.** For `O=CC(c1ccccc1)c1ccccc1`, which pKa is on record?
**A.** Its pKa is 9.39.

**Q.** Which pKa does the source give for `Cc1c(C)c(O)c(C)c(C)c1O` here?
**A.** Its pKa is 11.3.

**Q.** With `COc1ccc(C(=O)c2cc[nH]n2)cc1` as the molecule, how does the pKa read?
**A.** Its pKa is 12.1.

**Q.** For `Oc1ccc(Cl)cc1CN1CCOCC1`, which pKa is on record?
**A.** The pKa was 9.85.

**Q.** Which pKa does the source give for `C[n+]1cccc(O)c1` here?
**A.** The pKa was 4.96.

**Q.** With `O/N=C\C=C\c1ccccc1` as the molecule, how does the pKa read?
**A.** The pKa was 10.9.

**Q.** With `CC[NH+](CC)CCOc1ccccc1C(=O)NO` as the molecule, how does the pKa read?
**A.** Its pKa is 8.42.

**Q.** For `[NH3+][C@@H](Cc1c[nH]c2ccccc12)C(=O)O`, which pKa is on record?
**A.** The pKa was 2.2.

**Q.** With `Oc1cccc2c1CCCC2` as the molecule, how does the pKa read?
**A.** Its pKa is 10.5.

**Q.** Which pKa does the source give for `O=c1ccc2cc(O)c(O)cc2o1` here?
**A.** The pKa was 7.63.

**Q.** With `Cc1cc(O)cc(C)c1C#N` as the molecule, how does the pKa read?
**A.** Its pKa is 8.21.

**Q.** With `O=C(O)[C@H](O)c1ccc([N+](=O)[O-])cc1` as the molecule, how does the pKa read?
**A.** The pKa was 2.99.

**Q.** Which pKa does the source give for `Cc1nc(NS(=O)(=O)c2ccc(N)cc2)sc1C` here?
**A.** The pKa was 6.97.

**Q.** For `CCOC(=O)N1CCc2noc(O)c2CC1`, which pKa is on record?
**A.** The pKa was 4.7.

**Q.** Which pKa does the source give for `SCc1c[nH]cn1` here?
**A.** Its pKa is 9.54.

**Q.** With `O=C1CCc2cc([N+](=O)[O-])ccc2C1` as the molecule, how does the pKa read?
**A.** The pKa was 10.1.

**Q.** With `Oc1nsc2ccccc12` as the molecule, how does the pKa read?
**A.** Its pKa is 7.01.

**Q.** With `CCOC(=O)C(Cc1ccccc1)C(C)=O` (centres undefined) as the molecule, how does the pKa read?
**A.** The pKa was 11.8.

**Q.** Which pKa does the source give for `[O-]c1ncnc2nc[nH]c12` here?
**A.** Its pKa is 12.1.

**Q.** For `ONc1cc[n+](O)c2ccccc12`, which pKa is on record?
**A.** The pKa was 3.89.

**Q.** With `CCCCCCC(=O)O` as the molecule, how does the pKa read?
**A.** The pKa was 4.86.

**Q.** Which pKa does the source give for `Cc1ccc2c(c1)C([P+](c1ccccc1)(c1ccccc1)c1ccccc1)c1ccccc1-2` (centres undefined) here?
**A.** The pKa was 9.38.

**Q.** Which pKa does the source give for `[S-]c1ncnc2nc[nH]c12` here?
**A.** The pKa was 10.9.

**Q.** With `Cc1ccc(C(=O)O)cc1Cl` as the molecule, how does the pKa read?
**A.** The pKa was 4.06.

**Q.** Which pKa does the source give for `ONc1ncnc2nc[nH]c12` here?
**A.** The pKa was 9.83.

**Q.** Which pKa does the source give for `O=C(O)c1ccc[nH+]c1` here?
**A.** Its pKa is 2.03.

**Q.** For `O=C(O)C(CO)[NH2+]Cc1cc(Cl)ccc1O` (centres undefined), which pKa is on record?
**A.** The pKa was 2.12.

**Q.** With `O=C(O)c1cc2cc(Cn3cc[nH+]c3)ccc2s1` as the molecule, how does the pKa read?
**A.** Its pKa is 2.74.

**Q.** Which pKa does the source give for `COc1ccc(O)cc1C` here?
**A.** Its pKa is 10.2.

**Q.** For `Nc1ncnc2c1ncn2CCOCP(=O)([O-])O`, which pKa is on record?
**A.** The pKa was 7.

**Q.** For `Cc1ccccc1/C=C/C(=O)O`, which pKa is on record?
**A.** The pKa was 4.5.

**Q.** With `CCOc1cccc[n+]1O` as the molecule, how does the pKa read?
**A.** The pKa was 1.18.

**Q.** For `Cc1ccc2c(c1[O-])-c1c-2ccc(C)c1O`, which pKa is on record?
**A.** Its pKa is 11.5.

**Q.** With `O=S(=O)(Nc1ccccc1)c1ccccc1` as the molecule, how does the pKa read?
**A.** The pKa was 8.22.

**Q.** Which pKa does the source give for `CN(C)c1ccc(NC(=O)/C=N/O)cc1` here?
**A.** The pKa was 9.26.

**Q.** Which pKa does the source give for `CCOP(=O)([O-])NS(=O)(=O)c1ccccc1` here?
**A.** The pKa was 6.5.

**Q.** For `O=C(O)[C@H]1C[C@@H]1Cl`, which pKa is on record?
**A.** The pKa was 4.12.

**Q.** For `Cc1cc(C(=O)O)c(C)o1`, which pKa is on record?
**A.** Its pKa is 4.64.

**Q.** For `Cn1c(=O)[nH]c2ncn(C)c2c1=O`, which pKa is on record?
**A.** Its pKa is 8.65.

**Q.** For `Oc1cccc2cnccc12`, which pKa is on record?
**A.** Its pKa is 8.45.

**Q.** Which pKa does the source give for `Cc1n[nH]c2ncnc(N)c12` here?
**A.** Its pKa is 11.1.

**Q.** For `O=C([O-])c1cc([N+](=O)[O-])ccc1O`, which pKa is on record?
**A.** Its pKa is 10.1.

**Q.** Which pKa does the source give for `Nc1nc2cc3ccccc3cc2[nH]1` here?
**A.** The pKa was 12.8.

**Q.** Which pKa does the source give for `COc1cccc(OC)c1-c1nc2ncccc2[nH]1` here?
**A.** The pKa was 11.3.

**Q.** With `O=C(O)C(c1ccc(-c2ccccc2)cc1)C1(O)CCCCC1` (centres undefined) as the molecule, how does the pKa read?
**A.** Its pKa is 3.59.

**Q.** With `CN(C)C(=O)CS` as the molecule, how does the pKa read?
**A.** The pKa was 8.1.

**Q.** With `Cc1cccc(CN(C)C)c1O` as the molecule, how does the pKa read?
**A.** Its pKa is 11.1.

**Q.** For `CN1c2ccccc2Nc2c(O)cccc21`, which pKa is on record?
**A.** The pKa was 9.26.

**Q.** With `Cc1cc([C@@H]([NH3+])CO)c(O)c([C@@H]([NH3+])CO)c1` as the molecule, how does the pKa read?
**A.** Its pKa is 6.3.

**Q.** For `O=C1NC(=O)C(Cc2ccccc2)N1` (centres undefined), which pKa is on record?
**A.** The pKa was 9.03.

**Q.** Which pKa does the source give for `NC(=O)CCCc1ccccn1` here?
**A.** Its pKa is 5.48.

**Q.** With `O=c1oc2c(O)c(O)cc3c(=O)oc4c(O)c(O)cc1c4c23` as the molecule, how does the pKa read?
**A.** The pKa was 6.59.

**Q.** For `O=C1C(O)=C(Cc2ccccc2)C(=O)c2ccccc21`, which pKa is on record?
**A.** Its pKa is 4.9.

**Q.** With `Cc1ccc(/C=C/C(=O)C(=O)O)cc1` as the molecule, how does the pKa read?
**A.** The pKa was 1.96.

**Q.** Which pKa does the source give for `C=C(C)/C=C(\C)O` here?
**A.** Its pKa is 10.4.

**Q.** With `CC(C#N)(Cc1ccccc1)C(=O)O` (centres undefined) as the molecule, how does the pKa read?
**A.** The pKa was 2.29.

**Q.** For `Sc1ccc(Cl)c(Cl)c1`, which pKa is on record?
**A.** The pKa was 5.48.

**Q.** For `CCCCCCCCC(=O)OO`, which pKa is on record?
**A.** Its pKa is 8.23.

**Q.** With `CCc1c(-c2ccccc2)nn(-c2ccccc2)c1O` as the molecule, how does the pKa read?
**A.** Its pKa is 8.

**Q.** With `COc1ccc(/C=C/C(=O)O)cc1` as the molecule, how does the pKa read?
**A.** Its pKa is 4.6.

**Q.** Which pKa does the source give for `C[NH+](C)CCCNC(=O)/C=N/O` here?
**A.** The pKa was 8.68.

**Q.** With `O=c1cc(-c2ccccc2)oc2c(O)cccc12` as the molecule, how does the pKa read?
**A.** Its pKa is 7.82.

**Q.** Which pKa does the source give for `O=C(O)[C@H]1CC[C@H](O)CC1` here?
**A.** Its pKa is 4.68.

**Q.** For `C/C(O)=C/C(=O)O`, which pKa is on record?
**A.** The pKa was 4.05.

Same assay, conditions: basic group

**Q.** For `CN(C)/C=N/c1ccccc1Cl`, which pKa is on record?
**A.** Its pKa is 6.85.

**Q.** Which pKa does the source give for `CCCN(CC(C)O)CC(C)O` (centres undefined) here?
**A.** The pKa was 8.9.
